In patent US20100298141A1, “SUBSTITUTED PYRIDINE N-OXIDE HERBICIDES” (E. I. DU PONT DE NEMOURS AND COMPANY, priority 2007, published 2010):

Experiments:
[1] = test system: velvetleaf; test: Test C pre-/postemergence test; format: in vivo, Abutilon theophrasti; conditions: for Plant response rating, Velvetleaf: 31 g ai/ha, scale 0 to 100 (0 no effect, 100 complete control)
Method in brief: (§1)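 Test chemicals were formulated with surfactant in a non-phytotoxic solvent and sprayed both on freshly planted seeds (preemergence) and on 1- to 4-leaf plants of 2–18 cm (postemergence). Flooded-paddy pots received compound directly into 3 cm of standing water, maintained for the test.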

[2] = test system: cocklebur; test: Test C pre-/postemergence test; format: in vivo, Xanthium strumarium; conditions: for Plant response rating, Cocklebur: 31 g ai/ha, scale 0 to 100 (0 no effect, 100 complete control)
Method in brief: as §1

[3] = test system: common (oilseed) sunflower; test: Test C pre-/postemergence test; format: in vivo, Helianthus annuus; conditions: for Plant response rating, Sunflower: 31 g ai/ha, scale 0 to 100 (0 no effect, 100 complete control)
Method in brief: as §1

[4] = test system: kochia; test: Test C pre-/postemergence test; format: in vivo, Kochia scoparia; conditions: for Plant response rating, Kochia: 31 g ai/ha, scale 0 to 100 (0 no effect, 100 complete control)
Method in brief: as §1

[5] = test system: blackgrass; test: Test C pre-/postemergence test; format: in vivo, Alopecurus myosuroides; conditions: for Plant response rating, Blackgrass: 31 g ai/ha, scale 0 to 100 (0 no effect, 100 complete control)
Method in brief: as §1

[6] = test system: eastern black nightshade; test: Test C pre-/postemergence test; format: in vivo, Solanum ptycanthum; conditions: for Plant response rating, Nightshade: 31 g ai/ha, scale 0 to 100 (0 no effect, 100 complete control)
Method in brief: as §1

[7] = test system: common ragweed; test: Test C pre-/postemergence test; format: in vivo, Ambrosia elation
Method in brief: as §1

[8] = test system: wheat; test: Test C pre-/postemergence test; format: in vivo, Triticum aestivum; conditions: for Plant response rating, Wheat: 31 g ai/ha, scale 0 to 100 (0 no effect, 100 complete control)
Method in brief: as §1

[9] = test system: downy brome; test: Test C pre-/postemergence test; format: in vivo, Bromus tectorum; conditions: for Plant response rating, Bromegrass, Downy: 31 g ai/ha, scale 0 to 100 (0 no effect, 100 complete control)
Method in brief: as §1

[10] = test system: giant foxtail; test: Test C pre-/postemergence test; format: in vivo, Setaria faberii; conditions: for Plant response rating, Foxtail, Giant: 31 g ai/ha, scale 0 to 100 (0 no effect, 100 complete control)
Method in brief: as §1

[11] = test system: lambsquarters; test: Test C pre-/postemergence test; format: in vivo, Chenopodium album; conditions: for Plant response rating, Lambsquarters: 31 g ai/ha, scale 0 to 100 (0 no effect, 100 complete control)
Method in brief: as §1

[12] = test system: Surinam grass; test: Test C pre-/postemergence test; format: in vivo, Brachiaria decumbens; conditions: for Plant response rating, Surinam Grass: 31 g ai/ha, scale 0 to 100 (0 no effect, 100 complete control)
Method in brief: as §1

[13] = test system: redroot pigweed; test: Test A pre-/postemergence greenhouse test; format: in vivo, Amaranthus retroflexus; conditions: for Plant response rating, Pigweed: 0 to 100 scale where 0 is no effect and 100 is complete control; for Pigweed plant response rating: 0 to 100 scale
Method in brief: (§2)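 Pots of loam–sand soil sown with the test species are sprayed preemergence on the soil surface; emerged seedlings (1–2 leaves, 2–10 cm) are sprayed postemergence at the same time. The vehicle is a non-phytotoxic solvent mixture with surfactant. Injury is scored visually after ~10 d in greenhouse.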

[14] = test system: catchweed bedstraw; test: Test C pre-/postemergence test; format: in vivo, Galium aparine
Method in brief: as §1

[15] = test system: giant foxtail; test: Test A pre-/postemergence greenhouse test; format: in vivo, Setaria faberi; conditions: for Plant response rating, Foxtail, Giant: 0 to 100 scale where 0 is no effect and 100 is complete control; for Foxtail, Giant plant response rating: 0 to 100 scale
Method in brief: as §2

[16] = test system: wheat; test: Test A pre-/postemergence greenhouse test; format: in vivo, Triticum aestivum; conditions: for Plant response rating, Wheat: 0 to 100 scale where 0 is no effect and 100 is complete control; for Wheat plant response rating: 0 to 100 scale
Method in brief: as §2

[17] = test system: morningglory; test: Test A pre-/postemergence greenhouse test; format: in vivo, Ipomoea spp.; conditions: for Plant response rating, Morningglory: 0 to 100 scale where 0 is no effect and 100 is complete control; for Morningglory plant response rating: 0 to 100 scale
Method in brief: as §2

[18] = test system: wild oat; test: Test C pre-/postemergence test; format: in vivo, Avena fatua; conditions: for Plant response rating, Oat, Wild: 31 g ai/ha, scale 0 to 100 (0 no effect, 100 complete control)
Method in brief: as §1

[19] = test system: woolly cupgrass; test: Test C pre-/postemergence test; format: in vivo, Eriochloa villosa; conditions: for Plant response rating, Cupgrass, Woolly: 31 g ai/ha, scale 0 to 100 (0 no effect, 100 complete control)
Method in brief: as §1

[20] = 62 g ai/ha, Preemergence, scale 0 to 100
[21] = 125 g ai/ha, preemergence, scale 0 (no effect) to 100 (complete control)
[22] = preemergence, 250 g ai/ha, scale 0 (no effect) to 100 (complete control)
[23] = Postemergence, 500 g ai/ha, 0 is no effect, 100 is complete control
[24] = Preemergence, 125 g ai/ha, 0 no effect, 100 complete control
[25] = Preemergence, 31 g ai/ha, scale 0 to 100 (0 no effect, 100 complete control)

Cn1nc(C(F)(F)C(F)(F)F)c(C[S+]([O-])c2ccc(Cl)c[n+]2[O-])c1OCC(F)(F)F (stereo not shown) [Compound 92]
80: Nightshade plant response rating [6, 20] | Galium plant response rating [14, 20] | Plant response rating, Foxtail, Giant ([15]; Postemergence, 125 g ai/ha)
35: Sunflower plant response rating [3, 20] | Plant response rating, Wheat ([8]; Preemergence)
70: Sunflower plant response rating [3, 21] | Bromegrass, Downy plant response rating [9, 20] | Plant response rating, Surinam Grass ([12]; Preemergence) | Plant response rating, Wheat ([16]; Postemergence, 125 g ai/ha) | Wheat plant response rating [16, 23] | Wheat plant response rating [16, 24] | Plant response rating, Morningglory ([17]; Postemergence, 125 g ai/ha)
90: Wheat plant response rating [8, 21] | Foxtail, Giant plant response rating [15, 23] | Foxtail, Giant plant response rating [15, 24] | Wheat plant response rating ([16]; Preemergence, 500 g ai/ha, 0 no effect, 100 complete control) | Oat, Wild plant response rating [18, 21] | Cupgrass, Woolly plant response rating [19, 20]
100: Velvetleaf plant response rating [1, 21] | Velvetleaf plant response rating [1, 22] | Kochia plant response rating [4, 20] | Kochia plant response rating [4, 21] | Kochia plant response rating [4, 22] | Blackgrass plant response rating [5, 20] | Blackgrass plant response rating [5, 21] | Blackgrass plant response rating [5, 22] | Nightshade plant response rating [6, 21] | Nightshade plant response rating [6, 22] | Ragweed plant response rating [7, 21] | Ragweed plant response rating [7, 22] | Bromegrass, Downy plant response rating [9, 22] | Foxtail, Giant plant response rating [10, 20] | Foxtail, Giant plant response rating [10, 21] | Foxtail, Giant plant response rating [10, 22] | Lambsquarters plant response rating [11, 20] | Lambsquarters plant response rating [11, 21] | Plant response rating, Lambsquarters ([11]; Preemergence) | Lambsquarters plant response rating [11, 22] | Surinam Grass plant response rating [12, 21] | Surinam Grass plant response rating [12, 22] | Pigweed plant response rating [13, 23] | Pigweed plant response rating [13, 24] | Plant response rating, Pigweed ([13]; Preemergence, 500 g ai/ha) | Galium plant response rating [14, 22] | Plant response rating, Foxtail, Giant ([15]; Preemergence, 500 g ai/ha) | Morningglory plant response rating [17, 23] | Morningglory plant response rating [17, 24] | Plant response rating, Morningglory ([17]; Preemergence, 500 g ai/ha) | Oat, Wild plant response rating [18, 22] | Cupgrass, Woolly plant response rating [19, 22]
95: Wheat plant response rating [8, 22] | Galium plant response rating [14, 21]
65: Wheat plant response rating [8, 20] | Plant response rating, Cupgrass, Woolly ([19]; Preemergence)
60: Plant response rating, Nightshade ([6]; Preemergence) | Plant response rating, Oat, Wild ([18]; Preemergence)
98: Plant response rating, Foxtail, Giant ([10]; Preemergence) | Surinam Grass plant response rating [12, 20] | Cupgrass, Woolly plant response rating [19, 21]
0: Cocklebur plant response rating [2, 20] | Cocklebur plant response rating [2, 21] | Plant response rating, Cocklebur ([2]; Preemergence) | Plant response rating, Sunflower ([3]; Preemergence)
55: Cocklebur plant response rating [2, 22]
85: Sunflower plant response rating [3, 22] | Plant response rating, Blackgrass ([5]; Preemergence) | Ragweed plant response rating [7, 20] | Bromegrass, Downy plant response rating [9, 21] | Oat, Wild plant response rating [18, 20]
50: Velvetleaf plant response rating [1, 20] | Plant response rating, Velvetleaf ([1]; Preemergence) | Plant response rating, Kochia ([4]; Preemergence) | Plant response rating, Bromegrass, Downy ([9]; Preemergence) | Plant response rating, Pigweed ([13]; Postemergence, 125 g ai/ha)

Cn1nc(C(F)(F)F)c(C(Cl)S(=O)(=O)c2cccc[n+]2[O-])c1OC(F)F (stereo not shown) [Compound 51]
95: Galium plant response rating [14, 21] | Galium plant response rating [14, 22]
65: Plant response rating, Kochia ([4]; Preemergence)
0: Velvetleaf plant response rating [1, 20] | Plant response rating, Velvetleaf ([1]; Preemergence) | Cocklebur plant response rating [2, 20] | Cocklebur plant response rating [2, 21] | Plant response rating, Cocklebur ([2]; Preemergence) | Cocklebur plant response rating [2, 22] | Sunflower plant response rating [3, 20] | Sunflower plant response rating [3, 21] | Plant response rating, Sunflower ([3]; Preemergence) | Sunflower plant response rating [3, 22] | Plant response rating, Nightshade ([6]; Preemergence) | Ragweed plant response rating [7, 20] | Plant response rating, Ragweed [7, 25] | Bromegrass, Downy plant response rating [9, 20] | Bromegrass, Downy plant response rating [9, 21] | Plant response rating, Bromegrass, Downy ([9]; Preemergence) | Bromegrass, Downy plant response rating [9, 22] | Oat, Wild plant response rating [18, 20] | Plant response rating, Oat, Wild ([18]; Preemergence) | Plant response rating, Cupgrass, Woolly ([19]; Preemergence)
85: Nightshade plant response rating [6, 21] | Ragweed plant response rating [7, 22] | Galium plant response rating [14, 20]
80: Velvetleaf plant response rating [1, 22] | Plant response rating, Blackgrass ([5]; Preemergence) | Plant response rating, Galium [14, 25]
100: Kochia plant response rating [4, 20] | Kochia plant response rating [4, 21] | Kochia plant response rating [4, 22] | Blackgrass plant response rating [5, 22] | Nightshade plant response rating [6, 22] | Foxtail, Giant plant response rating [10, 22] | Lambsquarters plant response rating [11, 20] | Lambsquarters plant response rating [11, 21] | Plant response rating, Lambsquarters ([11]; Preemergence) | Lambsquarters plant response rating [11, 22] | Surinam Grass plant response rating [12, 22] | Pigweed plant response rating [13, 24] | Plant response rating, Pigweed ([13]; Preemergence, 500 g ai/ha) | Foxtail, Giant plant response rating [15, 24] | Plant response rating, Foxtail, Giant ([15]; Preemergence, 500 g ai/ha) | Cupgrass, Woolly plant response rating [19, 22]
20: Wheat plant response rating [8, 21]
40: Plant response rating, Wheat ([16]; Postemergence, 125 g ai/ha)
98: Surinam Grass plant response rating [12, 21]
10: Wheat plant response rating [8, 20] | Plant response rating, Foxtail, Giant ([10]; Preemergence) | Surinam Grass plant response rating [12, 20] | Plant response rating, Surinam Grass ([12]; Preemergence) | Oat, Wild plant response rating [18, 21]
50: Velvetleaf plant response rating [1, 21] | Foxtail, Giant plant response rating [10, 20] | Plant response rating, Foxtail, Giant ([15]; Postemergence, 125 g ai/ha) | Plant response rating, Wheat ([16]; Preemergence, 500 g ai/ha) | Morningglory plant response rating [17, 24] | Oat, Wild plant response rating [18, 22]
30: Ragweed plant response rating [7, 21] | Wheat plant response rating [16, 24]
90: Blackgrass plant response rating [5, 20] | Blackgrass plant response rating [5, 21] | Foxtail, Giant plant response rating [10, 21] | Foxtail, Giant plant response rating [15, 23] | Cupgrass, Woolly plant response rating [19, 21]
70: Pigweed plant response rating [13, 23] | Plant response rating, Morningglory ([17]; Preemergence, 500 g ai/ha) | Cupgrass, Woolly plant response rating [19, 20]
60: Plant response rating, Pigweed ([13]; Postemergence, 125 g ai/ha) | Wheat plant response rating [16, 23] | Plant response rating, Morningglory ([17]; Postemergence, 125 g ai/ha) | Morningglory plant response rating [17, 23]
5: Plant response rating, Wheat ([8]; Preemergence)
